Results reported in US11413305B2, “Use of agar-derived oligosaccharides for inhibiting growth of Staphylococcus” (Korea University Research and Business Foundation, priority 2017, dated 2022).

Experiments:
S. aureus (KCCM12256) = assay: Growth inhibition experiment in liquid medium (absorbance at 600 nm); format: cell-based, Staphylococcus aureus; settings: for concentration at which growth was completely inhibited: liquid M9-based medium, 37° C., 200 rpm, OD600
Experimental: (§1) S. aureus (KCCM12256) and S. epidermidis (KCCM35494) distributed from the Korean Culture Center of Microorganisms were used. The medium for Staphylococci used a M9 salt supplemented with 2 mM MgSO4, 0.1 mM CaCl2), 1% (w/v) glucose, 1% (w/v) casamino acid, 1 mM thiamine HCl, and 0.05 mM nicotinamide. The thiamine-HCl solution and the nicotinamide solution were filtered using a filter having a pore size of 0.2 μm, and the other components were autoclaved at 121° C. for 15 minutes and used. After mixing the medium components according to their respective concentrations, the mixture was filtered again using a filter having a pore size of 0.2 μm.
(§2) In the growth inhibition experiment, the S. aureus and the S. epidermidis were seed-cultured at 37° C. and 200 rpm for 24 hours and then subcultured. After incubation up to the mid-exponential phase (OD600=2.5) through the subculture, the bacteria were inoculated into liquid media containing the agarooligosaccharide at concentrations of 0 mg/mL, 1 mg/mL, 2 mg/mL, and 4 mg/mL so that the initial absorbance (i.e., initial cell population) thereof at 600 nm was 0.01. Subsequently, each of the above was dispensed in 200 μl aliquots into a 96-well plate, and absorbance was measured while culturing the bacteria. The incubation and the absorbance measurement were performed using Synergy HTX Multi-Mode Reader commercially available from BioTek Instruments, Inc. The incubation was performed at 37° C. and 200 rpm, and the absorbance was measured at a wavelength of 600 nm. […]
The growth inhibition test of Staphylococci was carried out in the same manner as in Example 1, except that AHG (1, 2, 4, and 8 mg/mL) was used instead of the agarooligosaccharide. […]

[1] = test system: S. epidermidis (KCCM35494); assay: as above; format: cell-based, Staphylococcus epidermidis
Experimental: as §1
as §2, with “bacteria.” for “bacteria. The incubation and the absorbance measurement were performed using Synergy HTX Multi-Mode Reader commercially available from BioTek Instruments, Inc. The incubation was performed at 37° C. and 200 rpm, and the absorbance was measured at a wavelength of 600 nm.”

S. aureus [2] = assay: Disk diffusion assay; format: cell-based, Staphylococcus aureus; settings: 50 to 150 μg/disk, 37° C., 16 hours
Experimental: (§3) The disk diffusion assay is a common method of determining whether microbial growth is inhibited based on the diffusion of antibiotics in a disk. Accordingly, agarobiose was dispensed in an amount of 0 to 150 μg/disk on each disk to observe the growth of Staphylococci.
(§4) To this end, a solid medium for a disk diffusion assay having the same composition as in Example 1 was used, except that 1.5% agar was added to the liquid medium. […] First, the disks were prepared such that they contained agarobiose in an aqueous state in amounts of 0, 50, 100, and 150 μg/disk. Subsequently, a staphylococcal culture was streaked on the provided solid medium using a sterile cotton swab so that the Staphylococci were evenly distributed on the medium, and the prepared disks were placed on the solid medium inoculated with the bacteria. Subsequently, after culturing the bacteria at 37° C. for 16 hours, it was observed that a zone of inhibition appeared.

S. epidermidis [3] = assay: Disk diffusion assay; format: cell-based, Staphylococcus epidermidis; settings: 50 to 150 μg/disk, 37° C., 16 hours
Experimental: as §3, §4

S. aureus [4] = assay: Number of viable Staphylococci over culture time (CFU count); format: cell-based, Staphylococcus aureus; settings: agarobiose concentrations of 2 mg/mL or more
Experimental: (§5) In order to observe changes in staphylococcal growth according to culture time after the addition of agarobiose, the number of viable Staphylococci was monitored for 16 hours or 32 hours. To this end, the initial cell concentration was adjusted to an average of about 6.5×10^6 CFU/mL for both S. aureus and S. epidermidis, and the experiment was carried out at agarobiose concentrations of 0, 2, and 4 mg/mL.
(§6) The same culture conditions as in the method of Example 1 were applied, except that agarobiose concentrations of 0, 2, and 4 mg/mL were applied. At a working volume of 10 mL, the number of viable cells instead of absorbance was measured. To this end, the original sample was taken at each time point, diluted to 10^−3 to 10^−6 using 0.85% physiological saline, and then dispensed onto a trypticase soy agar (TSA; BD Bioscience, Franklin Lakes, N.J.) medium. After 16 to 24 hours, colony-forming unit (CFU)/mL was calculated and converted based on a dilution factor.

S. epidermidis [5] = assay: as above; format: cell-based, Staphylococcus epidermidis
Experimental: as §5, §6

S. aureus [6] = assay: LIVE/DEAD BacLight cell viability assay; format: cell-based, Staphylococcus aureus; settings: agarobiose 2 mg/mL, 8 hours post-treatment
Experimental: The effect of the addition of agarobiose on the survival of S. aureus was tested using an Invitrogen LIVE/DEAD BacLight bacterial viability kit. […] To this end, after adjusting the number of S. aureus in a liquid medium containing agarobiose at 2 mg/mL so that the absorbance at 600 nm was 0.5, the S. aureus was cultured at 37° C. and 200 rpm. At 0 and 8 hours after incubation, the cells were washed with 0.85% physiological saline, resuspended in PBS buffer, and stained in accordance with the kit's protocol. Equal volumes of SYTO® 9 and propidium iodide reagents included in the kit were added and then reacted for 15 minutes in the dark.

[7] = liquid medium, OD600, 1, 2, 4 and 8 mg/mL tested

O=C[C@H](O)[C@@H](O)[C@@H](O)[C@H](O)CO [galactose, reference compound]
growth inhibition (S. aureus (KCCM12256); [7]): not inhibited at all

OC[C@H]1OC(O)[C@H](O)[C@@H](O[C@@H]2O[C@H]3CO[C@@H]([C@@H]2O)[C@@H]3O)[C@H]1O (stereo partly drawn) [neoagarobiose, reference compound]
concentration at which growth was completely inhibited (S. aureus (KCCM12256)): > 20 mg/mL

OC[C@H]1O[C@@H](O[C@H]2[C@H]3OC[C@@H]2OC(O)[C@H]3O)[C@H](O)[C@@H](O)[C@H]1O (mixture of isomers) [agarobiose]
concentration at which growth was completely inhibited (S. aureus (KCCM12256)): 2 mg/mL | concentration at which growth was completely inhibited ([1]; liquid M9-based medium, 37° C., 200 rpm, OD600): 2 mg/mL | growth around disk (zone of inhibition) (S. aureus [2]): did not grow at all | growth around disk (zone of inhibition) (S. epidermidis [3]): did not grow at all | growth (viable cell count) (S. aureus [4]): inhibited | decrease in number of viable cells from the initial number (S. epidermidis [5]; 2 mg/mL and 4 mg/mL, culturing for 16 to 32 hours, initial 6.5×10^6 CFU/mL): ≤ 1.5 log10 (CFU/mL) | growth (viable cell count) (S. epidermidis [5]; agarobiose concentrations of 2 mg/mL or more): inhibited | cell viability (green/red fluorescence) (S. aureus [6]): caused the death of S. aureus

O=C[C@@H](O)[C@@H]1OC[C@H](O)[C@H]1O [AHG, 3,6-anhydro-L-galactose]
concentration at which growth was almost completely inhibited (S. aureus (KCCM12256); [7]): 8 mg/mL | concentration at which growth was almost completely inhibited [1, 7]: 8 mg/mL
